Consider 8 compounds from US8927721B2, “Naphthyridine derivative” (Shionogi & Co., Ltd., priority 2010, dated 2015).

In data set [1] the target is T1, Recombinant human BACE1 (Homo sapiens, UniProt P56817).
T1 construct: purchased R&D Systems
Briefly: Assay of BACE1 inhibitory activity. It counts as biochemical. Particulars: Recombinant human BACE1, 30° C., 3 hours, pH 5.0; read-out: IC50 (50% inhibitory concentration against the enzymatic activity). The procedure:
48.5 μL of substrate peptide solution (Biotin-XSEVNLDAEFRHDSGC-Eu: X=ε-amino-n-capronic acid, Eu=Europium cryptate) was added to each well of 96-hole half-area plate (a black plate: Costar), and after addition of 0.5 μl of the compound of the present invention (N,N′-dimethylformamide solution) and 1 μl of Recombinant human BACE1(R&D Systems), the reaction mixture was incubated at 30° C. for 3 hours. The substrate peptide was synthesized by reacting Cryptate TBPCOOH mono SMP (CIS bio international) with Biotin-XSEVNLDAEFRHDSGC (Peptide Institute, Inc.). The final concentrations of the substrate peptide and Recombinant human BACE1 were adjusted to 18 nmol/L and 7.4 nmol/L, respectively, and the reaction was performed in sodium acetate buffer (50 mmol/L sodium acetate, pH 5.0, 0.008% Triton X-100). After the incubation for reaction, 50 μl of 8.0 μg/ml Streptavidin-XL665 (CIS bio international) dissolved in phosphate buffer (150 mmol/L K2HPO4—KH2PO4, pH 7.0, 0.008% Triton X-100, 0.8 mol/L KF) was added to each well and left stand at 30° C. for 1 hour. After then, fluorescence intensity was measured (excitation wavelength: 320 nm, measuring wavelength: 620 nm and 665 nm) using Wallac 1420 multilabel counter (Perkin Elmer life sciences). Enzymatic activity was determined from counting ratio of each wavelength (10,000×Count 665/Count 620) and 50% inhibitory concentration against the enzymatic activity (IC50) was calculated.

In data set [2] the target is T2, CYP3A4 (Homo sapiens, UniProt P08684). Briefly: CYP3A4 fluorescent MBI test. The format is in vitro ADME. Set-up: host or cells: Escherichia coli. Conditions: pre-reaction time 0 or 30 minutes, substrate 7-BFC. As to the method:
The CYP3A4 fluorescent MBI test is a test of investigating enhancement of CYP3A4 inhibition of the compound of the present invention by a metabolism reaction. 7-benzyloxytrifluoromethylcoumarin (7-BFC) is debenzylated by the CYP3A4 enzyme (enzyme expressed in Escherichia coli) and a metabolite, 7-hydroxytrifluoromethylcoumarin (7-HFC) which emits fluorescent light is produced. The test is performed using 7-HFC production reaction as an index.
The reaction conditions are as follows: substrate, 5.6 μmol/L 7-BFC: pre-reaction time, 0 or 30 minutes; reaction time, 15 minutes; reaction temperature, 25° C. […]
An enzyme in a K-Pi buffer (pH 7.4) and the compound of the present invention solution as a pre-reaction solution were added to a 96-well plate at the composition of the pre-reaction, a part of it was transferred to another 96-well plate so that it was 1/10 diluted by a substrate in a K-Pi buffer, NADPH as a co-factor was added to initiate a reaction as an index (without preincubation) and, after a predetermined time of a reaction, acetonitrile/0.5 mol/L Tris (trishydroxyaminomethane)=4/1 was added to stop the reaction. […] For the plate on which each index reaction had been performed, a fluorescent value of 7-HFC which is a metabolite was measured with a fluorescent plate reader. […]

The target in data set [3] is T3, CYP1A2 (Homo sapiens, UniProt P05177).
T3 construct: enzyme, pooled human hepatic microsome 0.2 mg protein/mL; from tissue; host or cells: pooled human hepatic microsome
T3 sequence (P05177 1-516): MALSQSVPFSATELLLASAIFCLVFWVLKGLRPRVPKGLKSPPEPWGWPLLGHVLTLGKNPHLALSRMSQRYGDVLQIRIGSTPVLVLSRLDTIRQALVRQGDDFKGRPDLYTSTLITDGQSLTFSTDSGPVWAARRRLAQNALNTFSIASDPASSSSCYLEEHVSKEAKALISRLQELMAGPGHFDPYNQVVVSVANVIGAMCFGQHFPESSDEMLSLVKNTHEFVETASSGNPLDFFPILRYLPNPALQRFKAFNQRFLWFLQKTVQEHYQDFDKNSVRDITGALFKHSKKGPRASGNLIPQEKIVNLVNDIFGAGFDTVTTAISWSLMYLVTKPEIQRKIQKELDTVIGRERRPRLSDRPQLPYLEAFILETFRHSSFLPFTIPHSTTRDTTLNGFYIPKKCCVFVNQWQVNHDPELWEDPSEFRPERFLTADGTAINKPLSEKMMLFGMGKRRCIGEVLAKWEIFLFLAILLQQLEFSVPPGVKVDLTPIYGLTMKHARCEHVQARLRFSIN
Briefly: CYP inhibition test (CYP1A2). The format is in vitro ADME. Conditions: pooled human hepatic microsome, 7-ethoxyresorufin O-deethylation. From the text: (§1) Using commercially available pooled human hepatic microsome, and employing, as markers, 7-ethoxyresorufin O-deethylation (CYP1A2), tolbutamide methyl-hydroxylation (CYP2C9), mephenyloin 4′-hydroxylation (CYP2C19), dextromethorphan O-demethylation (CYP2D6), and terfenedine hydroxylation (CYP3A4) as typical substrate metabolism reactions of human main five CYP enzyme forms (CYP1A2, 2C9, 2C19, 2D6, 3A4), an inhibitory degree of each metabolite production amount by a compound of the present invention was assessed. […] After the centrifugation at 3000 rpm for 15 minutes, resorufin (CYP1A2 metabolite) in the supernatant was quantified by a multi-label counter and hydroxytolbutamide (CYP2C9 metabolite), 4′-hydroxymephenyloin (CYP2C19 metabolite), dextrorphan (CYP2D6 metabolite), and terfenadine alcohol metabolite (CYP3A4 metabolite) were quantified by LC/MS/MS. Addition of only DMSO being a solvent dissolving a compound to a reaction system was adopted as a control (100%), remaining activity (%) was calculated and IC50 was calculated by reverse presumption by a logistic model using a concentration and an inhibition rate.

The target of data set [4] is T4, CYP2C9 (Homo sapiens, UniProt P11712).
T4 construct: enzyme, pooled human hepatic microsome 0.2 mg protein/mL; from tissue; host or cells: pooled human hepatic microsome
T4 sequence (P11712 whole entry): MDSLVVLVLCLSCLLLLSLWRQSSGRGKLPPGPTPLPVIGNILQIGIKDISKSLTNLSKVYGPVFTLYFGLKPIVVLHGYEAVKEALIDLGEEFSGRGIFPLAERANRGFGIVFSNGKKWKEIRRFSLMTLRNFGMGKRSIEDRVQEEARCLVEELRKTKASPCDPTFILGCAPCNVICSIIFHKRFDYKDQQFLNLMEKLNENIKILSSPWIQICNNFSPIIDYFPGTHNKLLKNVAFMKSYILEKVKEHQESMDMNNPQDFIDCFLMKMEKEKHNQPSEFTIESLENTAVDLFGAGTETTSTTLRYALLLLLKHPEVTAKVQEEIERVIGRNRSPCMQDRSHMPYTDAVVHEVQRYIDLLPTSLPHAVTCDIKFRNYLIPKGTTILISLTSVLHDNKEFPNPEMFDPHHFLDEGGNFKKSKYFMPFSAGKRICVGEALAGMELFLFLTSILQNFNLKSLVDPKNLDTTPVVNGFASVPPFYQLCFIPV
Briefly: CYP inhibition test (CYP2C9). The format is in vitro ADME. Particulars: pooled human hepatic microsome, tolbutamide methyl-hydroxylation.
Text: as §1

In data set [5] the target is T5, CYP2C19 (Homo sapiens, UniProt P33261).
T5 construct: enzyme, pooled human hepatic microsome 0.2 mg protein/mL; from tissue; host or cells: pooled human hepatic microsome
T5 sequence (P33261 whole entry): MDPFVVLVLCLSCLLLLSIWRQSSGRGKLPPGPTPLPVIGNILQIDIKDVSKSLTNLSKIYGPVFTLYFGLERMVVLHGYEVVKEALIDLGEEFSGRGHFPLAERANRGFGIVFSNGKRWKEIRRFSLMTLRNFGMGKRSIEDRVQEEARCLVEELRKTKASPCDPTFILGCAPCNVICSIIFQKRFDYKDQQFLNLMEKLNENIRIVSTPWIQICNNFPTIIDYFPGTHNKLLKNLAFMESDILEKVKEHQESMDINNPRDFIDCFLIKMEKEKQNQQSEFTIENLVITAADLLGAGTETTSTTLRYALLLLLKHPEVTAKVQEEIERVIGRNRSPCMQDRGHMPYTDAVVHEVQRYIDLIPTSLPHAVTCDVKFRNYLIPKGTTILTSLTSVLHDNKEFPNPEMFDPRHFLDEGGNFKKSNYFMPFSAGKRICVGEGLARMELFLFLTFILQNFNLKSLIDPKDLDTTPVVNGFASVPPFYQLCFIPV
Briefly: CYP inhibition test (CYP2C19). Particulars: pooled human hepatic microsome, mephenyloin 4′-hydroxylation. It counts as in vitro ADME.
Text: as §1

For data set [6], the target named is T6, CYP2D6 (Homo sapiens, UniProt P10635).
T6 construct: enzyme, pooled human hepatic microsome 0.2 mg protein/mL; from tissue; host or cells: pooled human hepatic microsome
T6 sequence (P10635 whole entry): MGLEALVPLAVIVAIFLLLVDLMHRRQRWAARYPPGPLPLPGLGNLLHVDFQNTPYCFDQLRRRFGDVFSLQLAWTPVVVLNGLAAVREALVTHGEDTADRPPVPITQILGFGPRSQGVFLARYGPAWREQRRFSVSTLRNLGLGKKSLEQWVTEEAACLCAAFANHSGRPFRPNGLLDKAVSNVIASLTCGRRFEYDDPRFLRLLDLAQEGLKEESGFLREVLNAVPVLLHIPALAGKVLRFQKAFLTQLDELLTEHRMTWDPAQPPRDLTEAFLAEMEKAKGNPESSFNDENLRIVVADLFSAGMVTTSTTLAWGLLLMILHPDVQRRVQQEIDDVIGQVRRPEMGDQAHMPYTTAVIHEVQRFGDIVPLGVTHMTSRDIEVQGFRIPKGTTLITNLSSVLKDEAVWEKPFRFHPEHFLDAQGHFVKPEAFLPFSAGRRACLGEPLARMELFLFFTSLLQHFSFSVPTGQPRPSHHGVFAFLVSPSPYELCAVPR
Briefly: CYP inhibition test (CYP2D6). The format is in vitro ADME. Conditions: pooled human hepatic microsome, dextromethorphan O-demethylation.
Text: as §1

Data set [7] has as its target T2, CYP3A4. The data set is described as follows: CYP inhibition test (CYP3A4). Set-up: enzyme, pooled human hepatic microsome 0.2 mg protein/mL; from tissue; host or cells: pooled human hepatic microsome. Conditions: pooled human hepatic microsome, terfenedine hydroxylation. The format is in vitro ADME.
Text: as §1

Data set [8] is described as follows: Metabolism stability test. The format is in vitro ADME. Particulars: human liver microsomes 0.5 mg protein/mL, 37° C., 30 minutes, NADPH. As to the method:
Using a commercially available pooled human hepatic microsomes, a compound of the present invention is reacted for a constant time, a remaining rate is calculated by comparing a reacted sample and an unreacted sample, thereby, a degree of metabolism in liver of the compound of the present invention is assessed.
A reaction is performed (oxidative reaction) at 37° C. for 0 minute or 30 minutes in the presence of 1 mmol/L NADPH in 0.2 mL of a buffer (50 mmol/L Tris-HCl pH 7.4, 150 mmol/L potassium chloride, 10 mmol/L magnesium chloride) containing 0.5 mg protein/mL of human liver microsomes. After the reaction, 50 μL of the reaction solution is added to 100 μL of a methanol/acetonitrile=1/1 (v/v), mixed and centrifuged at 3000 rpm for 15 minutes. The compound of the present invention in the supernatant is quantified by LC/MS/MS, and a remaining amount of the compound of the present invention after the reaction is calculated, letting a compound amount at 0 minute reaction time to be 100%.

Data set [9] deals with Aβ production in Neuroblastoma SH-SY5Y cells (SH/APPwt). The data set is described as follows: Measurement of β-amyloid (Aβ) production inhibiting effect in cell. The format is cell-based. Conditions: Homo sapiens, 24 hours, Amyloid β1-40 HTRF, read-out: IC50 (amount needed to inhibit Aβ production by 50%). As to the method: Neuroblastoma SH-SY5Y cells (SH/APPwt) with human wild-type 13-APP excessively expressed therein were prepared at 8×10^5 cells/mL, and 150 μl portions thereof were inoculated into each well of a 96-well culture plate (Falcon). The cells were cultured for 2 hours at 37° C. in a 5% gaseous carbon dioxide incubator. Then, a solution which have been preliminarily prepared by adding and suspending the compound of the present invention (DMSO (dimethyl sulfoxide) solution) so as to be 2 μl/50 μl medium was added to the cell sap. Namely, the final DMSO concentration was 1%, and the amount of the cell culture was 200 μl. After the incubation was performed for 24 hours from the addition of the test compound, 100 μl of the culture supernatant was collected from each fraction. The amount of the Aβ in each fraction was measured.
The Aβ amount was measured as follows. 10 μl of a homogeneous time resolved fluorescence (HTRF) measurement reagent (Amyloid β1-40 peptide; IBA Molecular Holding, S.A.) and 10 μl of the culture supernatant were put into a 384-well half area microplate (black microplate, Costar) and mixed with each other, and then left standing overnight at 4° C. while the light was shielded. Then, the fluorescence intensity (excitation wavelength: 337 nm, measurement wavelength: 620 nm and 665 nm) was measured with Wallac 1420 multilabel counter (Perkin Elmer life sciences). The Aβ amount was determined from the count rate at each measurement wavelength (10000×Count 665/Count 620), and the amount needed to inhibit A6 production by 50% (IC50) was calculated from at least six different dosages.

Data set [10] can be described thus: Solubility test (turbidity, JP-I, JP-II). Particulars: kinetic from dmso stock, turbidity after 4 hours, 2% DMSO. The format is physicochemical. As to the method: A 2-fold dilution series (12 points) of a 10 mM solution of a compound of the present invention in DMSO was added to a medium (JP-I, JP-II) (2%), and solubility was assessed by 3 stages (High; >40 μM, Medium; 3-40 μM, Low; <3 μM) from a turbidity after 4 hours.

As a reminder, the solubility is how much of the substance goes into solution per volume. A high value points to a readily soluble substance.

Each structure is given as a SMILES string.

T1 sequence (P56817 46-501): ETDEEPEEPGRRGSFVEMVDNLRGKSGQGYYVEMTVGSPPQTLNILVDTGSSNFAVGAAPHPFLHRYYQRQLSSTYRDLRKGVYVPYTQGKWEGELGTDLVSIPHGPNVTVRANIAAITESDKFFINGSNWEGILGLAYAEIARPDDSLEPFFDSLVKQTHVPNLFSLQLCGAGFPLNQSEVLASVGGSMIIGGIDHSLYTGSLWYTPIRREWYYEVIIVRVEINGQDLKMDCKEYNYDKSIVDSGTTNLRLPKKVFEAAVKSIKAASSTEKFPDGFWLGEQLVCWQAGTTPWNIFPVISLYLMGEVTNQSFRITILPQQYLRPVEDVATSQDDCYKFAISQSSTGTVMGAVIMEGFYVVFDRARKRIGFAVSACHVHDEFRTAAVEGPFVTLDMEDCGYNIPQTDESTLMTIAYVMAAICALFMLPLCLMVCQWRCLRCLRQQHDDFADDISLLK
T2 sequence (P08684 whole entry): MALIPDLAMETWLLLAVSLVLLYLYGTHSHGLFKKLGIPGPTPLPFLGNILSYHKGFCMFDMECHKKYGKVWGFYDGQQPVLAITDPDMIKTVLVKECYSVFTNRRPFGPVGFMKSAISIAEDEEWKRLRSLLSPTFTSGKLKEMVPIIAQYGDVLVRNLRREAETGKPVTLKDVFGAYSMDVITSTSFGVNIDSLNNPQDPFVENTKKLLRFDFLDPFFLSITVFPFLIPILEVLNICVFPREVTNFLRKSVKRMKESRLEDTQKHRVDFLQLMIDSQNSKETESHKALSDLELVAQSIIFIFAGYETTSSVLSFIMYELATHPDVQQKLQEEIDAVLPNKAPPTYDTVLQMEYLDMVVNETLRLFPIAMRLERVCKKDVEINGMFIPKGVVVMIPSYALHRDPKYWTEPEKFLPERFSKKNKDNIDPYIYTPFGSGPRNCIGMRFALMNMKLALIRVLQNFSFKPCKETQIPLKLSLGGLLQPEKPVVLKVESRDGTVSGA

As to `CC1(c2cc(NC(=O)c3ccc(C#N)cn3)ccc2F)Cc2ncccc2C(N)=N1` (stereo not drawn) [Compound I-1], the IC50 in [1] was determined as 54 nM. Further, in [2], the “CYP3A4 fluorescent MBI (difference between IC50 values without and with preincubation)” value is given as “(−) (when the difference is 3 μM or less, this was defined as (−))”.
With `CC1(c2cc(NC(=O)c3ncc(F)cc3F)ccc2F)Cc2ccncc2C(N)=N1` (stereo not drawn) [Compound I-2], the IC50 in data set [1] was at most 1000 nM; in [3], over 20000 nM; in data set [4], over 20000 nM; in data set [5], over 20000 nM; in [6], over 20000 nM; in data set [7] it was over 20000 nM.
For the compound `CC1(c2cc(NC(=O)c3ccc(C#N)cn3)ccc2F)Cc2cnccc2C(N)=N1` (stereo not drawn) [Compound I-5], in [1], the IC50 is at most 1000 nM. Besides, in data set [8], the “remaining amount after the reaction” value was found to be 88%.
As for `CC1(c2cc(NC(=O)c3ccc(C#N)cn3)ccc2F)Cc2ncc(F)cc2C(N)=N1` (stereo not drawn) [Compound I-7], the results for the IC50 in data set [1] and in data set [9] were at most 1000 nM and 2 nM, respectively.
Turning to `CC1(c2cc(NC(=O)c3ccc(C#N)cn3)ccc2F)Cc2c(F)cncc2C(N)=N1` (stereo not drawn) [Compound I-9], in [1], the IC50 was at most 1000 nM. Further, the solubility at 4 h was over 40 µM in data set [10] (JP-I medium, pH 1.2, simulated gastric fluid, JP-I) and over 40 µM in [10] (JP-II medium, pH 6.8, aqueous buffer, JP-II).
For the compound `COCC#CC(=O)Nc1ccc(F)c(C2(C)Cc3cnccc3C(N)=N2)c1` (stereo not drawn) [Compound I-28], the IC50 in [1] and in [9] was at most 3000 nM in each case.
As for `CC1(c2cc(NC(=O)C#Cc3ccccc3)ccc2F)Cc2cnccc2C(N)=N1` (stereo not drawn) [Compound I-30], the IC50 in [1] came to 147 nM; in [9] it was 46 nM.
The matching figures for `CC#CC(=O)Nc1ccc(F)c(C2(C)Cc3c(F)cncc3C(N)=N2)c1` (stereo not drawn) [Compound I-34]: at most 1000 nM and 20 nM.
